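In this assay, cells in 96-well plates receive the compound at five concentrations for 48 hours. Endpoints are linearly interpolated between the surrounding concentrations. Here, GI50 denotes the concentration required for 50% inhibition of growth.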 The source made the active and inactive calls. No stated cut-off is given here; in the data, active = GI50 up to about 1.1 µM and inactive = higher.
How the values were obtained:
Assay in all cases: NCI-60 cell line screen, 48 h
NCI-H460 = system: NCI-H460
CCRF-CEM = system: CCRF-CEM
SF-539 = system: SF-539
HOP-62 = system: HOP-62
Malme-3M = system: Malme-3M
A498 = system: A498
MOLT-4 = system: MOLT-4
COLO 205 = system: COLO 205
MDA-N = system: MDA-N
SN12C = system: SN12C
UACC-62 = system: UACC-62
SNB-75 = system: SNB-75
M14 = system: M14
HT-29 = system: HT-29
RPMI-8226 = system: RPMI-8226
SK-MEL-28 = system: SK-MEL-28
OVCAR-5 = system: OVCAR-5
UACC-257 = system: UACC-257
PC-3 = system: PC-3
HOP-92 = system: HOP-92

Measured: GI50

CC(=O)Nc1ccc(S(=O)(=O)N=S(C)C)cc1
inactive: NCI-H460 > 100 µM | CCRF-CEM > 100 µM | SF-539 > 100 µM | HOP-62 > 100 µM | Malme-3M > 100 µM | A498 > 100 µM | MOLT-4 > 100 µM | COLO 205 > 100 µM | MDA-N > 100 µM | SN12C > 100 µM | UACC-62 > 100 µM | SNB-75 > 100 µM | M14 > 100 µM | HT-29 > 100 µM | RPMI-8226 > 100 µM | SK-MEL-28 > 100 µM | OVCAR-5 > 100 µM | UACC-257 > 100 µM | PC-3 > 100 µM | HOP-92 > 100 µM

O=C1C(=O)c2c(oc(=O)c3ccccc23)-c2ccccc21
inactive: NCI-H460 > 25 µM | CCRF-CEM > 25 µM | SF-539 > 25 µM | HOP-62 > 25 µM | Malme-3M 8.93 µM | A498 > 25 µM | MOLT-4 > 25 µM | COLO 205 > 25 µM | MDA-N 24.4 µM | SN12C 14.5 µM | UACC-62 > 25 µM | SNB-75 16.6 µM | M14 > 25 µM | HT-29 17.5 µM | RPMI-8226 19.3 µM | SK-MEL-28 > 25 µM | OVCAR-5 > 25 µM | UACC-257 > 25 µM | PC-3 > 25 µM | HOP-92 15.3 µM

Cc1ccc2c(c1C)C(=O)/C(=C/c1ccccc1C(=O)O)C2
inactive: NCI-H460 > 100 µM | CCRF-CEM 76.9 µM | SF-539 > 100 µM | HOP-62 > 100 µM | Malme-3M > 100 µM | A498 > 100 µM | MOLT-4 > 100 µM | COLO 205 > 100 µM | MDA-N > 100 µM | SN12C > 100 µM | UACC-62 > 100 µM | SNB-75 > 100 µM | M14 > 100 µM | HT-29 > 100 µM | RPMI-8226 45.3 µM | SK-MEL-28 > 100 µM | OVCAR-5 > 100 µM | UACC-257 > 100 µM | PC-3 > 100 µM | HOP-92 > 100 µM

CC(C)=CCC/C(C)=C/CC/C(C)=C/CC(CO)N(C)CC/C=C(\C)CCC=C(C)C (stereo not given)
inactive: NCI-H460 3.48 µM | CCRF-CEM 3.03 µM | SF-539 3.06 µM | HOP-62 4.32 µM | Malme-3M 2.99 µM | A498 14.9 µM | MOLT-4 2.39 µM | COLO 205 2.42 µM | MDA-N 3.43 µM | SN12C 4.54 µM | UACC-62 16.1 µM | SNB-75 12 µM | M14 1.79 µM | HT-29 3.5 µM | RPMI-8226 3.09 µM | SK-MEL-28 5.87 µM | OVCAR-5 7.13 µM | UACC-257 5.2 µM | PC-3 7.96 µM | HOP-92 2.7 µM
